Assay results as given in ChEMBL document CHEMBL4396913, “Synthesis and biological evaluation of hybrid quinolone-based quaternary ammonium antibacterial agents” (Eur J Med Chem, 2019).
In brackets after ≈: the same amount, converted by molar mass. Activity calls are given as the source filed them. No cut-off for these calls is given here.

Columns and labels:
Staphylococcus aureus [1] = assay: Antibacterial activity against Staphylococcus aureus ATCC 6538 cultured in MH medium assessed as reduction in bacterial growth incubated for 48 hrs by microbroth dilution method; assay type: functional; conditions: ATCC 6538, 48 h
Staphylococcus aureus [2] = assay: Bactericidal activity against Staphylococcus aureus ATCC 6538 cultured in MH medium assessed as reduction in bacterial survival incubated for 48 hrs by microbroth dilution method; assay type: functional; conditions: ATCC 6538, 48 h
Staphylococcus aureus [3] = assay: Antibacterial activity against methicillin resistant Staphylococcus aureus N315 cultured in MH medium assessed as reduction in bacterial growth incubated for 48 hrs by microbroth dilution method; assay type: functional; conditions: N315, 48 h
[4] = tested on: Staphylococcus epidermidis; assay: Antibacterial activity against Staphylococcus epidermidis ATCC 14990 cultured in MH medium assessed as reduction in bacterial growth incubated for 48 hrs by microbroth dilution method; assay type: functional; conditions: ATCC 14990, 48 h
[5] = tested on: Staphylococcus epidermidis; assay: Bactericidal activity against Staphylococcus epidermidis ATCC 14990 cultured in MH medium assessed as reduction in bacterial survival incubated for 48 hrs by microbroth dilution method; assay type: functional; conditions: ATCC 14990, 48 h
Enterococcus hirae [6] = assay: Antibacterial activity against Enterococcus hirae ATCC 1052 cultured in BHI medium assessed as reduction in bacterial growth incubated for 48 hrs by microbroth dilution method; assay type: functional; conditions: ATCC 1052, 48 h
Enterococcus hirae [7] = assay: Bactericidal activity against Enterococcus hirae ATCC 1052 cultured in BHI medium assessed as reduction in bacterial survival incubated for 48 hrs by microbroth dilution method; assay type: functional; conditions: ATCC 1052, 48 h
Bacillus spizizenii [8] = assay: Antibacterial activity against Bacillus subtilis ATCC 6633 cultured in MH medium assessed as reduction in bacterial growth incubated for 48 hrs by microbroth dilution method; assay type: functional; conditions: ATCC 6633, 48 h
Bacillus spizizenii [9] = assay: Bactericidal activity against Bacillus subtilis ATCC 6633 cultured in MH medium assessed as reduction in bacterial survival incubated for 48 hrs by microbroth dilution method; assay type: functional; conditions: ATCC 6633, 48 h
Escherichia coli [10] = assay: Antibacterial activity against Escherichia coli ATCC 8739 cultured in MH medium assessed as reduction in bacterial growth incubated for 48 hrs by microbroth dilution method; assay type: functional; conditions: ATCC 8739, 48 h
Escherichia coli [11] = assay: Bactericidal activity against Escherichia coli ATCC 8739 cultured in MH medium assessed as reduction in bacterial survival incubated for 48 hrs by microbroth dilution method; assay type: functional; conditions: ATCC 8739, 48 h
Pseudomonas aeruginosa [12] = assay: Bactericidal activity against Pseudomonas aeruginosa ATCC 9027 cultured in MH medium assessed as reduction in bacterial survival incubated for 48 hrs by microbroth dilution method; assay type: functional; conditions: ATCC 9027, 48 h
Proteus vulgaris [13] = assay: Antibacterial activity against Proteus vulgaris NCTC 4635 cultured in MH medium assessed as reduction in bacterial growth incubated for 48 hrs by microbroth dilution method; assay type: functional; conditions: NCTC 4635, 48 h
Proteus vulgaris [14] = assay: Bactericidal activity against Proteus vulgaris NCTC 4635 cultured in MH medium assessed as reduction in bacterial survival incubated for 48 hrs by microbroth dilution method; assay type: functional; conditions: NCTC 4635, 48 h
Staphylococcus aureus [15] = assay: Antibacterial activity against methicillin resistant Staphylococcus aureus 6347 cultured in MH medium assessed as reduction in bacterial growth incubated for 48 hrs by microbroth dilution method; assay type: functional; conditions: Staphylococcus aureus, 6347, 48 h
Staphylococcus aureus [16] = assay: Bactericidal activity against methicillin resistant Staphylococcus aureus 6347 cultured in MH medium assessed as reduction in bacterial survival incubated for 48 hrs by microbroth dilution method; assay type: functional; conditions: Staphylococcus aureus, 6347, 48 h
Streptococcus pneumoniae [17] = assay: Antibacterial activity against Streptococcus pneumoniae cultured in MH medium assessed as reduction in bacterial growth incubated for 48 hrs by microbroth dilution method; assay type: functional
Streptococcus pneumoniae [18] = assay: Bactericidal activity against Streptococcus pneumoniae cultured in MH medium assessed as reduction in bacterial survival incubated for 48 hrs by microbroth dilution method; assay type: functional
Serratia marcescens [19] = assay: Antibacterial activity against Serratia marcescens ATCC 12795 cultured in MH medium assessed as reduction in bacterial growth incubated for 48 hrs by microbroth dilution method; assay type: functional; conditions: ATCC 12795, 48 h
Serratia marcescens [20] = assay: Bactericidal activity against Serratia marcescens ATCC 12795 cultured in MH medium assessed as reduction in bacterial survival incubated for 48 hrs by microbroth dilution method; assay type: functional; conditions: ATCC 12795, 48 h
[21] = molecular target: DNA gyrase (Escherichia coli) (UniProt P0AES6+P0AES4); assay: Inhibition of Escherichia coli DNA gyrase super-coiling activity using relaxed pNO1 DNA as substrate assessed as enzyme residual activity at 1 uM incubated for 30 mins by fluorescence assay relative to control; assay type: protein-complex assay
Escherichia coli [22] = assay: Induction of inner membrane permeabilization in Escherichia coli ATCC 8739 assessed as increase in release of cytoplasmic beta galactosidase using ONPG as substrate at 128 ug/ml incubated for 90 mins compound added with bacterial cells after lag time of about 10 mins by spectrophotometry; assay type: organism-based
Pseudomonas aeruginosa [23] = assay: Antibiofilm activity against Pseudomonas aeruginosa ATCC 9027 assessed as biofilm formation at antibacterial MIC incubated for 24 hrs compound added prior to bacterial biofilm formation by total biomass crystal violet staining-based method relative to control; assay type: functional
Staphylococcus aureus [24] = assay: Antibiofilm activity against Staphylococcus aureus ATCC 6538 assessed as biofilm formation at antibacterial MIC incubated for 24 hrs compound added prior to bacterial biofilm formation by total biomass crystal violet staining-based method relative to control; assay type: functional
Pseudomonas aeruginosa [25] = assay: Antibiofilm activity against Pseudomonas aeruginosa ATCC 9027 assessed as biofilm formation at 0.5 times antibacterial MIC incubated for 24 hrs compound added prior to bacterial biofilm formation by total biomass crystal violet staining-based method relative to control; assay type: functional
Staphylococcus aureus [26] = assay: Antibiofilm activity against Staphylococcus aureus ATCC 6538 assessed as biofilm formation at 0.5 times antibacterial MIC incubated for 24 hrs compound added prior to bacterial biofilm formation by total biomass crystal violet staining-based method relative to control; assay type: functional
Pseudomonas aeruginosa [27] = assay: Biofilm degradation activity against Pseudomonas aeruginosa ATCC 9027 assessed as biofilm formation at antibacterial MIC incubated for 24 hrs compound added post-biofilm formation by total biomass crystal violet staining-based method; assay type: functional
Pseudomonas aeruginosa [28] = assay: Biofilm degradation activity against Pseudomonas aeruginosa ATCC 9027 assessed as biofilm formation at 2 times antibacterial MIC incubated for 24 hrs compound added post-biofilm formation by total biomass crystal violet staining-based method; assay type: functional
Pseudomonas aeruginosa [29] = assay: Biofilm degradation activity against Pseudomonas aeruginosa ATCC 9027 assessed as biofilm formation at 4 times antibacterial MIC incubated for 24 hrs compound added post-biofilm formation by total biomass crystal violet staining-based method; assay type: functional
Staphylococcus aureus [30] = assay: Biofilm degradation activity against Staphylococcus aureus ATCC 6538 assessed as biofilm formation at antibacterial MIC incubated for 24 hrs compound added post-biofilm formation by total biomass crystal violet staining-based method; assay type: functional
Staphylococcus aureus [31] = assay: Biofilm degradation activity against Staphylococcus aureus ATCC 6538 assessed as biofilm formation at 2 times antibacterial MIC incubated for 24 hrs compound added post-biofilm formation by total biomass crystal violet staining-based method; assay type: functional
Staphylococcus aureus [32] = assay: Biofilm degradation activity against Staphylococcus aureus ATCC 6538 assessed as biofilm formation at 4 times antibacterial MIC incubated for 24 hrs compound added post-biofilm formation by total biomass crystal violet staining-based method; assay type: functional
Staphylococcus aureus [33] = conditions: ATCC 25923, 10 to 40 uM
Description: Antibiofilm activity Staphylococcus aureus ATCC 25923 pre-formed mature biofilm assessed as reduction in biofilm viability at 10 to 40 uM incubated for 24 hrs compound added post-biofilm formation by resazurin staining based assay relative to control

Staphylococcus aureus [34] = conditions: ATCC 25923, 10 to 40 uM; remark: listed apart in the source
Description: Antibiofilm activity Staphylococcus aureus ATCC 25923 pre-formed mature biofilm assessed as reduction in biofilm biomass at 10 to 40 uM incubated for 24 hrs compound added post biofilm formation by crystal violet staining based assay relative to control

**Q.** Which MIC (Staphylococcus aureus [1]) does the source give for `O=C(O)c1cn(C2CC2)c2cc(N3CCNCC3)c(F)cc2c1=O` [CIPROFLOXACIN] here?
**A.** 0.25 µg/mL (≈ 0.754 µM)

**Q.** And the MBC (Staphylococcus aureus [2])?
**A.** 0.5 µg/mL (≈ 1.51 µM)

**Q.** And the MIC (Staphylococcus aureus [3])?
**A.** 1 µg/mL (≈ 3.02 µM)

**Q.** What about the MIC [4] of the same compound?
**A.** 0.25 µg/mL (≈ 0.754 µM)

**Q.** What about the MBC [5] of the same compound?
**A.** 0.25 µg/mL (≈ 0.754 µM)

**Q.** What about the MIC (Enterococcus hirae [6]) of the same compound?
**A.** 128 µg/mL (≈ 386 µM)

**Q.** What about the MBC (Enterococcus hirae [7]) of the same compound?
**A.** 128 µg/mL (≈ 386 µM)

**Q.** And the MIC (Bacillus spizizenii [8])?
**A.** 0.032 µg/mL (≈ 0.0966 µM)

**Q.** What about the MBC (Bacillus spizizenii [9]) of the same compound?
**A.** 0.063 µg/mL (≈ 0.19 µM)

**Q.** And the MIC (Escherichia coli [10])?
**A.** 0.032 µg/mL (≈ 0.0966 µM)

**Q.** And the MBC (Escherichia coli [11])?
**A.** 0.032 µg/mL (≈ 0.0966 µM)

**Q.** And the MBC (Pseudomonas aeruginosa [12])?
**A.** 0.5 µg/mL (≈ 1.51 µM)

**Q.** And the MIC (Proteus vulgaris [13])?
**A.** 0.008 µg/mL (≈ 0.0241 µM)

**Q.** What about the MBC (Proteus vulgaris [14]) of the same compound?
**A.** 0.008 µg/mL (≈ 0.0241 µM)

**Q.** And the MIC (Staphylococcus aureus [15])?
**A.** 0.25 µg/mL (≈ 0.754 µM)

**Q.** What about the MBC (Staphylococcus aureus [16]) of the same compound?
**A.** 0.5 µg/mL (≈ 1.51 µM)

**Q.** And the MIC (Streptococcus pneumoniae [17])?
**A.** 8 µg/mL (≈ 24.1 µM)

**Q.** What about the MBC (Streptococcus pneumoniae [18]) of the same compound?
**A.** > 512 µg/mL

**Q.** And the MIC (Serratia marcescens [19])?
**A.** 0.125 µg/mL (≈ 0.377 µM)

**Q.** And the MBC (Serratia marcescens [20])?
**A.** 0.125 µg/mL (≈ 0.377 µM)

**Q.** And the Activity [21]?
**A.** 7%

**Q.** And the Activity (Escherichia coli [22])?
**A.** Active

**Q.** And the Activity (Pseudomonas aeruginosa [23])?
**A.** 3%

**Q.** And the Activity (Staphylococcus aureus [24])?
**A.** 3%

**Q.** And the Activity (Pseudomonas aeruginosa [25])?
**A.** 7%

**Q.** What about the Activity (Staphylococcus aureus [26]) of the same compound?
**A.** 5%

**Q.** And the Activity (Pseudomonas aeruginosa [27])?
**A.** 76%

**Q.** What about the Activity (Pseudomonas aeruginosa [28]) of the same compound?
**A.** 72%

**Q.** What about the Activity (Pseudomonas aeruginosa [29]) of the same compound?
**A.** 64%

**Q.** What about the Activity (Staphylococcus aureus [30]) of the same compound?
**A.** 21%

**Q.** What about the Activity (Staphylococcus aureus [31]) of the same compound?
**A.** 17%

**Q.** And the Activity (Staphylococcus aureus [32])?
**A.** 31%

**Q.** What about the inhibition (Staphylococcus aureus [33]) of the same compound?
**A.** Active

**Q.** What about the inhibition (Staphylococcus aureus [34]) of the same compound?
**A.** Active
